Source: patent US5939403A, “Keratan sulfate oligosaccharide fraction and pharmaceutical containing the same” (Seikagaku Corporation, priority 1994, dated 1999)
Structures can show the parent of a compound that is named as a salt.

Tested on: carrageenin pleurisy
Assay: Carrageenin pleurisy model
Type: in vivo, Female S.D. rats
Details: six hours
Protocol: The effect of the keratan sulfate oligosaccharide was examined with the carrageenin pleurisy model of rats which is generally used for evaluation of anti-inflammatory agents.
Female S.D. rats (n=37) of about 150 to 170 g weight were used for the test. The λ-carrageenin (Sigma) was dissolved in saline to a concentration of 2%, and the solution was filtered with a 0.8 μm filter. The carrageenin solution obtained was intrathoracically administered at 100 μl/animal to prepare the pleurisy model.
To the pleurisy model of rats (n=19) described above, the keratan sulfate tetrasaccharide (I) dissolved in PBS was subcutaneously (s.c.) administered in 20 mg/kg or 10 mg/kg dose. And as the positive control, steroid (dexamethasone acetate; Banyu Pharmaceutical) was subcutaneously administered to the eight rats described above in 150 μg/kg which was the clinical dose. As the negative control, PBS was subcutaneously administered to the 10 rats. Each administration was carried out immediately after the administration of carrageenin.
Each rat was anatomized six hours after the administration of λ-carrageenin. The thoracic cavity of the rats was opened to collect the retained pleural fluid using a 2-ml syringe with probe. After that, inside of the thoracic cavity was washed with 1 ml of saline, and the washing solution was recovered. The volume of the pleural fluid recovered with the syringe was determined, and the number of leukocyte (cell number) in the pleural fluid was determined by an automatic cytometer. The results are be shown in FIG. 8 and FIG. 9, respectively. In the figures, * and ** represent that they have the significant difference with p<0.05 and p<0.01, respectively (wherein "p" means a level of significance by the Duncan test).

With `CC(=O)N[C@H]1[C@H](O[C@H]2[C@@H](O)[C@@H](COS(=O)(=O)O)O[C@@H](O[C@H]3[C@H](O)[C@@H](NC(C)=O)C(O)O[C@@H]3COS(=O)(=O)O)[C@@H]2O)O[C@H](COS(=O)(=O)O)[C@@H](O[C@@H]2O[C@H](COS(=O)(=O)O)[C@H](O)[C@H](O)[C@H]2O)[C@@H]1O` (stereo partly drawn) [keratan sulfate tetrasaccharide (I), Gal(6S)β1-4GlcNAc(6S)β1-3Gal(6S)β1-4GlcNAc(6S)] the “number of leukocyte in pleural fluid (FIG. 9)” value (10 mg/kg and 20 mg/kg s.c.) was “significantly less than that in the negative control group, and dose-dependent decrease was observed”, the “volume of pleural fluid (FIG. 8)” value (10 mg/kg s.c.) was “significantly less than that in the negative control group” and the “volume of pleural fluid (FIG. 8), dose comparison” value (10 mg/kg vs 20 mg/kg s.c.) was “almost same as that in the keratan sulfate tetrasaccharide (I) 20 mg/kg administered group”.
